Where a SMILES comes first, the peptide text is derived from it. [ ]: non-standard residue; d: D form. Aib = CC(C)(N)C(=O)O
How the values were obtained:
[1] = biological target: GLP-1R (Homo sapiens, UniProt P43220); assay: NanoBiT mini-Gs recruitment to GLP-1R-SmBiT in HEK293T cells; format: cell-based; details: SRB103 pair, mean ± SEM, n = 6
Description: The assay was performed as previously described. […] (gifts from Professor Nevin Lambert, Medical College of Georgia) or 0.05 μg of GLP-1R-SmBiT and 0.05 μg of LgBiT-β-arrestin-2 (Promega) plus 0.9 μg of pcDNA3.1 for 24 h. The cells were detached with EDTA, resuspended in HBSS, and furimazine (Promega) was added at a 1:50 dilution from the manufacturer's pre-prepared stock. After dispensing into 96-well white plates, a baseline read of the luminescent signals was serially recorded for 5 min using a FlexStation 3 instrument at 37 °C before the indicated concentration of ligand was added, after which the signals were repeatedly recorded for 30 min. […] Bias was calculated using two approaches. First, the log max/EC50 method was used, with the ratio of Emax to EC50 from 3-parameter fits for each ligand used to quantify agonism. After log10 transformation, responses were expressed relative to the reference agonist on a per assay basis to obtain Δlog(Emax/EC50) for each pathway. Pathway-specific values were then expressed relative to each other to obtain ΔΔlog(Emax/EC50), that is, the log bias factor. Second, a method derived from kinetic curve fitting was used. Here, kinetic responses for a single maximal agonist concentration were normalised at each time point to the vehicle response prior to curve fitting. […]

[2] = biological target: T1, recombinant DPP-4 (Homo sapiens, UniProt P27487); assay: DPP-4 peptide degradation assay; format: in vitro ADME; details: 10 nmol peptide in 750 μl 100 mM Tris–HCl pH 8, 10 mU recombinant DPP-4, 37 °C, 1 or 24 h, intact peptide by RP-HPLC (C18), UV 214 nm, vs no-enzyme control, n = 3
T1 construct: purchased R&D Systems
T1 sequence (P27487 whole entry, species assumed): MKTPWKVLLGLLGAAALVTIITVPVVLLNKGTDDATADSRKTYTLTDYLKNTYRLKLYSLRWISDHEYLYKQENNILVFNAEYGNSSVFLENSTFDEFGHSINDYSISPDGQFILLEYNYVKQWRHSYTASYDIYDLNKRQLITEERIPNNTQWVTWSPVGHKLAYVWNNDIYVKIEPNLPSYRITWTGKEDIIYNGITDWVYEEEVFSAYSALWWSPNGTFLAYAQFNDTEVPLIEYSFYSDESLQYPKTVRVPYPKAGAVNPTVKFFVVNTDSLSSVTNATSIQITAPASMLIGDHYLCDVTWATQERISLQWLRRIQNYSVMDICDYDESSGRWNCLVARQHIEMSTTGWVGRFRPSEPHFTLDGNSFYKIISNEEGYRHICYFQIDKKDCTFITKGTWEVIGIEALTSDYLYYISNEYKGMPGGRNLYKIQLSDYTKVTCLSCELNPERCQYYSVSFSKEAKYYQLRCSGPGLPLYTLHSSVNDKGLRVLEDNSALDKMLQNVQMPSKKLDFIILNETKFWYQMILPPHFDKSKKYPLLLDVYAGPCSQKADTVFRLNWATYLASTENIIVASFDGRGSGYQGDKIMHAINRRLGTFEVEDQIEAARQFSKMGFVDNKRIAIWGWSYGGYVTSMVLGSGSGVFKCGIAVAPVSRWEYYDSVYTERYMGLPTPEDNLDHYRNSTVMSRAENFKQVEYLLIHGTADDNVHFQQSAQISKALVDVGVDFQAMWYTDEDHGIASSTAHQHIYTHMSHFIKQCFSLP
Description: Then, 10 mU of recombinant DPP-4 (R&D Systems) or no enzyme as a control for non-enzymatic degradation over the same time period was added to the reconstituted peptide. Reactions were incubated at 37 °C and 120 μl samples were collected from the reaction vessel at the indicated time points. Then, 5 μl of 10% trifluoroacetic acid (TFA) was added to each sample to terminate enzyme activity. The samples were analysed by reverse-phase high-performance liquid chromatography (HPLC) with a linear acetonitrile/water gradient acidified with 0.1% TFA on Phenomenex Aeris Peptide 3.6 μm XB-C18 columns (150 × 4.6 mm). The eluted peptides were detected at 214 nm. Peptide degradation was calculated by comparing the area under the peak of the original compound with and without enzyme.

[3] = Pharmacokinetic study in mice (plasma radioimmunoassay); format: in vivo, mouse; details: 0.5 mg/kg IP
Description: (§1) The mice were administered 0.5 mg/kg of peptide via IP injection. Four h after injection, blood was acquired by venesection into lithium heparin-coated microvette tubes (Sarstedt, Germany). In a separate study, male Sprague Dawley rats (average weight 250 g, obtained from Charles River) were administered 4 mg/kg of peptide SC mixed in aqueous ZnCl2 solution to a molar ratio of 0.7:1 (peptide:ZnCl2), and blood was collected by venesection at several time points up to 72 h. Plasma was separated by centrifugation at 10,000 g for 8 min at 4 °C. Plasma concentrations were assessed by radioimmunoassay using an in-house assay as previously described using standard curves generated from each SRB103 peptide to ensure that equivalent recovery was obtained.

[4] = Pharmacokinetic study in rats (SC with ZnCl2, plasma radioimmunoassay); format: in vivo, rat; details: 4 mg/kg SC with zinc, up to 72 h
Description: as §1

GLP-1R, sequence (P43220 24-463): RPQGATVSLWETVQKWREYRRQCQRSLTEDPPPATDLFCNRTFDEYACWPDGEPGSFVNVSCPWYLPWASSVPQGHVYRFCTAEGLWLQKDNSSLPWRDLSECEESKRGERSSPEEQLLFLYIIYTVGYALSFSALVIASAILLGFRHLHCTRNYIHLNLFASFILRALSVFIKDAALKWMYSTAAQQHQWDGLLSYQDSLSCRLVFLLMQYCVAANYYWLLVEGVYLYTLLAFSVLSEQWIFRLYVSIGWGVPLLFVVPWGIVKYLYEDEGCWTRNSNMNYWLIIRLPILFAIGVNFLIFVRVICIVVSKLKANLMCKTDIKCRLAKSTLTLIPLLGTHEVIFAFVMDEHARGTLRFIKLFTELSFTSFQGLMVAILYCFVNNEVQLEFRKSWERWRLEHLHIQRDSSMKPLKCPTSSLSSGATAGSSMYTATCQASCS

Compound	Emax ([1]; HEK-293T, normalised to globally fitted maximum response) [%]	EC50 ([1]; 3-parameter fit, read-out: GLP-1R mini-Gs (HEK293T) pEC50 (converted)) [nM]	Resistance to DPP-4-mediated degradation [2]	Plasma concentration 4 h after a single dose [3]	Pharmacokinetics by serial plasma sampling [4]
CC[C@H](C)[C@H](NC(=O)[C@H](Cc1ccccc1)NC(=O)[C@H](CCC(=O)O)NC(=O)[C@H](CCC(N)=O)NC(=O)[C@H](C)NC(=O)[C@H](CCCNC(=N)N)NC(=O)[C@H](CCCCN)NC(=O)[C@H](C)NC(=O)[C@H](CC(=O)O)NC(=O)[C@H](CC(C)C)NC(=O)[C@H](Cc1ccc(O)cc1)NC(=O)[C@H](CCCCN)NC(=O)[C@H](CO)NC(=O)[C@H](Cc1ccc(O)cc1)NC(=O)[C@H](CC(=O)O)NC(=O)[C@H](CO)NC(=O)[C@@H](NC(=O)[C@H](Cc1ccccc1)NC(=O)[C@@H](NC(=O)CNC(=O)[C@H](Cc1c[nH]cn1)NC(=O)C(C)(C)NC(=O)[C@@H](N)Cc1c[nH]cn1)[C@@H](C)O)[C@@H](C)O)C(=O)N[C@@H](CCC(=O)O)C(=O)N[C@@H](Cc1c[nH]c2ccccc12)C(=O)N[C@@H](CC(C)C)C(=O)N[C@@H](CC(C)C)C(=O)N[C@@H](C)C(=O)NCC(=O)N[C@@H](Cc1c[nH]cn1)C(=O)N[C@@H](Cc1c[nH]cn1)C(=O)N[C@@H](Cc1c[nH]cn1)C(=O)N[C@@H](Cc1c[nH]cn1)C(=O)N[C@@H](Cc1c[nH]cn1)C(=O)N1CCC[C@H]1C(=O)N[C@@H](CO)C(=O)N[C@@H](Cc1c[nH]c2ccccc12)C(=O)O [SRB103H] (H-H[Aib]HGTFTSDYSKYLDAKRAQEFIEWLLAGHHHHHPSW-OH)	103 ± 4	79.4	highly resistant to DPP-4-mediated degradation	the same	no obvious difference in pharmacokinetics
CC[C@H](C)[C@H](NC(=O)[C@H](Cc1ccccc1)NC(=O)[C@H](CCC(=O)O)NC(=O)[C@H](CCC(N)=O)NC(=O)[C@H](C)NC(=O)[C@H](CCCNC(=N)N)NC(=O)[C@H](CCCCN)NC(=O)[C@H](C)NC(=O)[C@H](CC(=O)O)NC(=O)[C@H](CC(C)C)NC(=O)[C@H](Cc1ccc(O)cc1)NC(=O)[C@H](CCCCN)NC(=O)[C@H](CO)NC(=O)[C@H](Cc1ccc(O)cc1)NC(=O)[C@H](CC(=O)O)NC(=O)[C@H](CO)NC(=O)[C@@H](NC(=O)[C@H](Cc1ccccc1)NC(=O)[C@@H](NC(=O)CNC(=O)[C@H](CCC(N)=O)NC(=O)C(C)(C)NC(=O)[C@@H](N)Cc1c[nH]cn1)[C@@H](C)O)[C@@H](C)O)C(=O)N[C@@H](CCC(=O)O)C(=O)N[C@@H](Cc1c[nH]c2ccccc12)C(=O)N[C@@H](CC(C)C)C(=O)N[C@@H](CC(C)C)C(=O)N[C@@H](C)C(=O)NCC(=O)N[C@@H](Cc1c[nH]cn1)C(=O)N[C@@H](Cc1c[nH]cn1)C(=O)N[C@@H](Cc1c[nH]cn1)C(=O)N[C@@H](Cc1c[nH]cn1)C(=O)N[C@@H](Cc1c[nH]cn1)C(=O)N1CCC[C@H]1C(=O)N[C@@H](CO)C(=O)N[C@@H](Cc1c[nH]c2ccccc12)C(=O)O [SRB103Q] (H-H[Aib]QGTFTSDYSKYLDAKRAQEFIEWLLAGHHHHHPSW-OH)	–	–	highly resistant to DPP-4-mediated degradation	–	no obvious difference in pharmacokinetics

Reference: article PMC8163982, “Partial agonism improves the anti-hyperglycaemic efficacy of an oxyntomodulin-derived GLP-1R/GCGR co-agonist” (Molecular Metabolism, 2021)
